Measurements reported in patent US20050215544A1, “Methods of treating HIV infection” (priority 2004, published 2005).

How the values were obtained:
[1] = system: HIV-1 LAI; test: Two-drug combination antiviral assay with Compound 1 (combination indices, Chou and Rideout); type: cell-based; details: combination with Compound 1; for Combination Indices at 50% HIV Inhibition (Confidence Interval) / Combination Indices at 75% HIV Inhibition (Confidence Interval) / Combination Indices at 90% HIV Inhibition (Confidence Interval): 95% CI in parenthesis; for Overall Result of two-drug combination: all ratios and inhibition levels
Experimental: (§1) Virus and cell lines. The T-cell lines, MT-2 and PM-1 were obtained through the AIDS Research and Reference Reagent Program, NIAID, and were contributed by Dr. D. Richman and Dr. R. Gallo, respectively. Both cell lines were cultured in RPMI 1640 medium supplemented with 10% fetal bovine serum, 2 mM L-glutamine and sub-cultured twice a week. The LAI strain of HIV-1 was obtained from the Fred Hutchinson Cancer Research Center, and the Bal strain was from NIH. Both virus stocks were amplified and titered in MT-2 cells (LAI) and PM-1 cells (Bal) using a virus infectivity assay.
(§2) Drug Susceptibility and Cytotoxicity Assays. For drug susceptibility assays, MT-2 cells were infected with HIV-1 LAI (or PM-1 cells with HIV-1 Bal) at an MOI of 0.005, and seeded into 96-well microtiter plates ([…] cells/ml) containing serial dilutions of test compounds. […] Each drug ratio consisted of an array of 3-fold serial dilutions, and was performed in quadruplicate. The plates were incubated at 37° C./5% CO2. The MT-2 cells infected with HIV-1 LAI were incubated for 5 days. On day-five post-infection, 20 μl from each well was harvested and quantitated by a reverse transcriptase (RT) assay, or in samples involving non-nucleoside RT inhibitors, an MTS assay. The PM-1 cells infected with HIV-1 Bal and used for studying the combinations with CCR5 inhibitors were incubated for six days. On day-six post-infection, 20 μl from each well was harvested, 20- and 50-fold diluted and quantitated by p24 assay. Cytotoxicity assays were performed using uninfected cells, exposed to the same drug combinations, and incubated for six days. Cell viability was determined by an MTS assay. The CC50 values were calculated by using the exponential form of the median effect equation as mentioned below for calculation of EC50.
Analysis of Drug Combination Effects. For determination of CI values, drugs were diluted in a fixed ratio and multiple ratios were analyzed. The drug serial dilutions spanned a range of concentrations near the EC50 value of each compound, so that equivalent antiviral activities could be compared. Concentration-response curves were estimated for each individual drug and every combination using the median-effect equation. The equation was fit using a nonlinear regression routine (Proc Nlin) in PC SAS version 8.01 (SAS Institute Inc., SAS Version 8.01, Cary, NC: SAS Institute Inc., 1990).
(§3) In this equation, Fa stands for “fraction affected,” and represents the fraction of the viral load that has been inactivated. […] ED50 is drug concentration that is expected to reduce the amount of virus by 50%, and m is a parameter that reflects the slope of the concentration-response curve.
To assess antiviral effects of different drug combination treatments, combination indices (CIs) were calculated according to Chou and Rideout. The combination index was computed as CI=[D]1/[Dm]1+[D]2/[Dm]2
In this equation [Dm]1 and [Dm]2 are the concentrations of drugs that would individually produce a specific level of effect, while [D]1 and [D]2 are the concentrations of drugs in combination that would produce the same level of effect.
Theoretically, additivity is implied if the CI is equal to one, synergy if the CI is less than one, and antagonism if the CI is greater than one. […] At best, we can construct a range that contains the likely values for the CI, given the noise in the data. In this report, these ranges are reported in parentheses next to each point estimate of the CI. […] If the range fell entirely above 1.0, we would infer antagonistic behavior. If the range were to include 1.0, we would infer additivity.

[2] = system: HIV-1 LAI; test: microbe, parasite or virus in culture; details: Human immunodeficiency virus 1, MT2, 120 h
Experimental: as §1, §2, §3
In carrying out the combination experiments below, the EC50 for Compound 1 and each comparator compound was determined during the course of each study, and used in the subsequent data analysis.

[3] = EC50 ratio 1:1 (Compound 1 to comparator)
[4] = EC50 ratio 1:2.5 (Compound 1 to comparator)
[5] = EC50 ratio 2.5:1 (Compound 1 to comparator)

SMILES | EC50 [2] | Combination Indices at 50% HIV Inhibition (Confidence Interval) [1, 3] | Combination Indices at 75% HIV Inhibition (Confidence Interval) [1, 3] | Combination Indices at 90% HIV Inhibition (Confidence Interval) [1, 3] | Combination Indices at 50% HIV Inhibition (Confidence Interval) [1, 4] | Combination Indices at 75% HIV Inhibition (Confidence Interval) [1, 4] | Combination Indices at 90% HIV Inhibition (Confidence Interval) [1, 4] | Combination Indices at 50% HIV Inhibition (Confidence Interval) [1, 5] | Combination Indices at 75% HIV Inhibition (Confidence Interval) [1, 5] | Combination Indices at 90% HIV Inhibition (Confidence Interval) [1, 5] | Overall Result of two-drug combination [1] | Overall Result of two-drug combination ([1]; listed as delavirdine) | Overall Result of two-drug combination ([1]; listed as efavirenz)
Nc1nc(NC2CC2)c2ncn([C@H]3C=C[C@@H](CO)C3)c2n1 [Abacavir] | 0.528 µM | 0.18 (0.13, 0.23) | 0.47 (0.30, 0.64) | 1.23 (0.52, 1.94) | 0.34 (0.27, 0.41) | 0.64 (0.45, 0.83) | 1.22 (0.65, 1.79) | 0.23 (0.19, 0.28) | 0.42 (0.30, 0.53) | 0.75 (0.42, 1.07) | Additive- | – | –
CC(C)CN(C[C@@H](O)[C@H](Cc1ccccc1)NC(=O)O[C@H]1CCOC1)S(=O)(=O)c1ccc(N)cc1 [Amprenavir] | 0.035 µM | 0.47 (0.33, 0.62) | 0.76 (0.44, 1.09) | 1.37 (6.46, 2.28) | 0.63 (0.45, 0.81) | 0.72 (0.44, 1.01) | 0.99 (0.38, 1.60) | 0.20 (0.12, 0.28) | 0.60 (0.28, 0.92) | 1.87 (0.24, 3.50) | Additive- | – | –
COC(=O)N[C@H](C(=O)N[C@@H](Cc1ccccc1)[C@@H](O)CN(Cc1ccc(-c2ccccn2)cc1)NC(=O)[C@@H](NC(=O)OC)C(C)(C)C)C(C)(C)C [Atazanavir] | 0.0005 µM | 0.76 (0.64, 0.89) | 0.89 (0.69, 1.10) | 1.07 (0.68, 1.46) | 0.28 (0.25, 0.31) | 0.38 (0.33, 0.44) | 0.54 (0.42, 0.66) | 0.08 (0.07, 0.09) | 0.14 (0.12, 0.17) | 0.25 (0.18, 0.33) | Additive- | – | –
CC(C)(C)NC(=O)[C@@H]1CN(Cc2cccnc2)CCN1C[C@@H](O)C[C@@H](Cc1ccccc1)C(=O)N[C@H]1c2ccccc2C[C@H]1O [Indinavir] | 0.001 µM | 0.73 (0.58, 0.88) | 0.75 (0.54, 0.97) | 0.77 (0.42, 1.12) | 0.42 (0.22, 0.63) | 0.57 (0.20, 0.95) | 0.78 (0.00, 1.64) | 0.56 (0.43, 0.69) | 0.67 (0.45, 0.89) | 0.81 (0.38, 1.23) | Moderate- | – | –
Cc1cn([C@H]2C[C@H](N=[N+]=[N-])[C@@H](CO)O2)c(=O)[nH]c1=O [Zidovudine] | – | 0.30 (0.17, 0.42) | 0.48 (0.20, 0.76) | 0.78 (0.05, 1.51) | 0.20 (0.16, 0.25) | 0.30 (0.21, 0.40) | 0.45 (0.22, 0.68) | 0.04 (0.03, 0.04) | 0.04 (0.03, 0.05) | 0.04 (0.03, 0.05) | Synergistic | – | –

Continued, in another order:

EC50 [2] | SMILES | Combination Indices at 50% HIV Inhibition (Confidence Interval) [1, 3] | Combination Indices at 75% HIV Inhibition (Confidence Interval) [1, 3] | Combination Indices at 90% HIV Inhibition (Confidence Interval) [1, 3] | Combination Indices at 50% HIV Inhibition (Confidence Interval) [1, 4] | Combination Indices at 75% HIV Inhibition (Confidence Interval) [1, 4] | Combination Indices at 90% HIV Inhibition (Confidence Interval) [1, 4] | Combination Indices at 50% HIV Inhibition (Confidence Interval) [1, 5] | Combination Indices at 75% HIV Inhibition (Confidence Interval) [1, 5] | Combination Indices at 90% HIV Inhibition (Confidence Interval) [1, 5] | Overall Result of two-drug combination [1] | Overall Result of two-drug combination ([1]; listed as delavirdine) | Overall Result of two-drug combination ([1]; listed as efavirenz)
0.0001 to 0.0003 µM | O=C(C(=O)N1CCN(C(=O)c2ccccc2)CC1)c1c[nH]c2c(-n3ccnn3)ncc(F)c12 [Compound 1, 1-Benzoyl-4-[2-[4-fluoro-7-(1H-1,2,3-triazol-1-yl)-1H-pyrrolo[2,3-c]pyridin-3-yl]-1,2-dioxoethyl]-piperazine] | – | – | – | – | – | – | – | – | – | synergistic or additive-synergistic | – | –
0.099 µM | CC(C)Nc1cccnc1N1CCN(C(=O)c2cc3cc(NS(C)(=O)=O)ccc3[nH]2)CC1 [Delavirdine] | 0.79 (0.55, 1.03) | 0.59 (0.35, 0.84) | 0.45 (0.16, 0.73) | 0.99 (0.72, 1.26) | 0.90 (0.56, 1.23) | 0.81 (0.34, 1.29) | 0.56 (0.28, 0.84) | 0.51 (0.16, 0.86) | 0.45 (0.00, 0.95) | Additive- | additive to synergistic | –
0.644 µM | O=c1[nH]cnc2c1ncn2[C@H]1CC[C@@H](CO)O1 [Didanosine] | 0.91 (0.74, 1.09) | 0.88 (0.65, 1.11) | 0.88 (0.52, 1.24) | 0.22 (0.19, 0.25) | 0.18 (0.14, 0.22) | 0.16 (0.10, 0.21) | 1.02 (0.83, 1.22) | 0.96 (0.70, 1.21) | 0.91 (0.53, 1.29) | Additive- | – | –
0.0006 µM | O=C1Nc2ccc(Cl)cc2[C@@](C#CC2CC2)(C(F)(F)F)O1 [Efavirenz] | 0.93 (0.74, 1.12) | 0.70 (0.51, 0.90) | 0.57 (0.32, 0.82) | 0.71 (0.58, 0.85) | 0.85 (0.62, 1.08) | 1.10 (0.64, 1.56) | 0.82 (0.62, 1.02) | 0.83 (0.55, 1.12) | 0.89 (0.41, 1.36) | Additive- | – | additive to synergistic
0.036 µM | Nc1nc(=O)n([C@@H]2CS[C@H](CO)O2)cc1F [Emtricitabine] | 0.56 (0.49, 0.62) | 0.39 (0.34, 0.45) | 0.28 (0.22, 0.33) | 0.45 (0.38, 0.51) | 0.62 (0.50, 0.74) | 0.86 (0.59, 1.14) | 0.22 (0.20, 0.24) | 0.32 (0.28, 0.37) | 0.48 (0.38, 0.58) | Synergistic | – | –
